From PubChem BioAssay AID256 (DTP/NCI, 2004)
Several values for one entry are separate records, joined by “and”; a condition that tells them apart may be missing. Equal values may be shown once. Inconclusive results and toxic doses are left out. How the source made its calls: active means survival T/C of 150% or more; inactive means T/C below 125% in these data.

Tested on: CD2F1 mice, L1210 leukemia ip, survival T/C
Assay: NCI In Vivo Anticancer Drug Screen. Data for tumor model L1210 Leukemia (intraperitoneal) in CD2F1 (CDF1) mice
Conditions: higher = longer survival
Procedure, shortened: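 Compound-dosed mice with transplantable tumor versus matched vehicle controls; endpoint ratio T/C reported.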

[1] = endpoint: mean survival time, dose: 100.0 mg/kg/injection, schedule: Q01DX009 (ip), vehicle: saline with Tween-80
[2] = endpoint: mean survival time, dose: 100.0 mg/kg/injection, schedule: Q04DX003 (ip), vehicle: saline with Tween-80
[3] = endpoint: mean survival time, dose: 200.0 mg/kg/injection, schedule: Q01DX009 (ip), vehicle: saline with Tween-80
[4] = endpoint: mean survival time, dose: 200.0 mg/kg/injection, schedule: Q04DX003 (ip), vehicle: saline with Tween-80
[5] = endpoint: mean survival time, dose: 400.0 mg/kg/injection, schedule: Q01DX009 (ip), vehicle: saline with Tween-80
[6] = endpoint: mean survival time, dose: 400.0 mg/kg/injection, schedule: Q04DX003 (ip), vehicle: saline with Tween-80
[7] = endpoint: mean survival time, dose: 100.0 mg/kg/injection, schedule: Q04DX002 (ip), vehicle: saline with Tween-80
[8] = endpoint: mean survival time, dose: 200.0 mg/kg/injection, schedule: Q04DX002 (ip), vehicle: saline with Tween-80
[9] = endpoint: mean survival time, dose: 400.0 mg/kg/injection, schedule: Q04DX002 (ip), vehicle: saline with Tween-80
[10] = endpoint: mean survival time, dose: 100.0 mg/kg/injection, schedule: Q01DX001 (ip), vehicle: saline
[11] = endpoint: mean survival time, dose: 200.0 mg/kg/injection, schedule: Q01DX001 (ip), vehicle: saline
[12] = endpoint: mean survival time, dose: 50.0 mg/kg/injection, schedule: Q01DX009 (ip), vehicle: saline with Tween-80
[13] = endpoint: mean survival time, dose: 100.0 mg/kg/injection, schedule: Q01DX001 (ip), vehicle: saline with Tween-80
[14] = endpoint: mean survival time, dose: 200.0 mg/kg/injection, schedule: Q01DX001 (ip), vehicle: saline with Tween-80
[15] = endpoint: mean survival time, dose: 400.0 mg/kg/injection, schedule: Q01DX001 (ip), vehicle: saline with Tween-80

Measured: T/C

CC1(O)CC23CC(O)C4(O)C(CC(O)C4(C)C)C(C)(O)C2CCC1C3O (centres undefined)
inactive: endpoint: median survival time, dose: 0.06 mg/kg/injection, schedule: Q01DX009 (ip), vehicle: Klucel (hydroxypropylcellulose) (HPC) 97 % of control | endpoint: median survival time, dose: 0.12 mg/kg/injection, schedule: Q01DX009 (ip), vehicle: Klucel (hydroxypropylcellulose) (HPC) 96 % of control | endpoint: median survival time, dose: 0.25 mg/kg/injection, schedule: Q01DX009 (ip), vehicle: Klucel (hydroxypropylcellulose) (HPC) 102 % of control | endpoint: median survival time, dose: 0.5 mg/kg/injection, schedule: Q01DX009 (ip), vehicle: Klucel (hydroxypropylcellulose) (HPC) 97 % of control

O=C1CSC(=S)N1/N=C/c1ccc(Cl)c([N+](=O)[O-])c1
inactive: [1] 92 % of control | [2] 92 % of control | [3] 100 % of control | [4] 95 % of control | [5] 90 % of control | [6] 86 % of control

CCOC(=O)CCN(C)C
inactive: endpoint: mean survival time, dose: 100.0 mg/kg/injection, schedule: Q04DX003 (ip), vehicle: saline 97 % of control | endpoint: mean survival time, dose: 200.0 mg/kg/injection, schedule: Q04DX003 (ip), vehicle: saline 100 % of control | endpoint: mean survival time, dose: 400.0 mg/kg/injection, schedule: Q04DX003 (ip), vehicle: saline 100 % of control

COc1cc2c(c(OC)c1O)-c1ccc(OC)c(=O)cc1[C@@H](NC(C)=O)CC2
inactive: endpoint: mean survival time, dose: 1.25 mg/kg/injection, schedule: Q01DX005 (ip), vehicle: Klucel (hydroxypropylcellulose) (HPC) 103 % of control | endpoint: mean survival time, dose: 2.5 mg/kg/injection, schedule: Q01DX005 (ip), vehicle: Klucel (hydroxypropylcellulose) (HPC) 104 % of control | endpoint: mean survival time, dose: 3.12 mg/kg/injection, schedule: Q01DX009 (ip), vehicle: saline 118 % of control | endpoint: mean survival time, dose: 5.0 mg/kg/injection, schedule: Q01DX005 (ip), vehicle: Klucel (hydroxypropylcellulose) (HPC) 110 % of control | endpoint: mean survival time, dose: 20.0 mg/kg/injection, schedule: Q01DX005 (ip), vehicle: Klucel (hydroxypropylcellulose) (HPC) 121 % of control | endpoint: mean survival time, dose: 40.0 mg/kg/injection, schedule: Q01DX005 (ip), vehicle: Klucel (hydroxypropylcellulose) (HPC) 110 % of control

CN(C(=O)c1c(Cl)n(C)c2ccccc12)c1ccccc1
inactive: endpoint: mean survival time, dose: 25.0 mg/kg/injection, schedule: Q04DX003 (ip), vehicle: Klucel (hydroxypropylcellulose) (HPC) 98 % of control | endpoint: mean survival time, dose: 50.0 mg/kg/injection, schedule: Q04DX003 (ip), vehicle: Klucel (hydroxypropylcellulose) (HPC) 101 % of control | endpoint: mean survival time, dose: 100.0 mg/kg/injection, schedule: Q04DX003 (ip), vehicle: Klucel (hydroxypropylcellulose) (HPC) 104 % of control

CCOC(=O)/C=C1/C=C(C)CC(C)(C)C1 (tested in a mixture with another compound)
inactive: [7] 98 % of control | [8] 91 % of control | [9] 87 % of control

CC(C)C/C=N/NC(=O)c1ccc[n+](C)c1
inactive: endpoint: mean survival time, dose: 50.0 mg/kg/injection, schedule: Q01DX001 (ip), vehicle: saline 107 % of control | [10] 109 % of control | [11] 103 % of control

O=C(O)CN(CC(=O)O)CC(O)CN(CC(=O)O)CC(=O)O
inactive: [10] 98 % of control | [11] 105 % of control | endpoint: mean survival time, dose: 400.0 mg/kg/injection, schedule: Q01DX001 (ip), vehicle: saline 93 % of control

N.O=S(=O)(O)O.[Al]
inactive: [12] 97 % of control | [1] 91 % of control | [2] 94 % of control | [3] 96 % of control | [4] 99 % of control

Oc1c(O)c(Br)c(Br)c(Br)c1Br
inactive: endpoint: mean survival time, dose: 100.0 mg/kg/injection, schedule: Q01DX001 (ip), vehicle: other 98 % of control | endpoint: mean survival time, dose: 200.0 mg/kg/injection, schedule: Q01DX001 (ip), vehicle: other 103 % of control

COc1cc(OC)c(NC(=O)Nc2ccc(Cl)c(C(F)(F)F)c2)cc1Cl
inactive: [12] 93 % of control | [1] 93 % of control | [3] 93 % of control

CCCC/C=C\C=C/CCCC
inactive: [13] 102 % of control | [14] 102 % of control | [15] 94 % of control

CC(C)CCCC(C)C1CCC2C3CC(C(=O)O)C(C)(CCC(=O)O)C3CCC12C (centres undefined)
inactive: endpoint: mean survival time, dose: 75.0 mg/kg/injection, schedule: Q01DX001 (ip), vehicle: other 108 % of control | endpoint: mean survival time, dose: 150.0 mg/kg/injection, schedule: Q01DX001 (ip), vehicle: other 104 % of control

CCCCCNC(=O)Nc1cccc(Cl)c1C
inactive: [1] 94 % of control | [2] 88 % of control | [3] 92 % of control | [4] 92 % of control | [6] 92 % of control

CCCCNC(=O)Nc1ccc(Cl)cc1
inactive: [13] 88 % of control | [14] 86 % of control | [15] 88 % of control

O=C1C=CC(=Nc2ccccc2Cl)O1
inactive: [2] 103 % of control | [4] 101 % of control | [6] 100 % of control

S=C(S)OCc1ccccc1.[Pt]
inactive: endpoint: mean survival time, dose: 25.0 mg/kg/injection, schedule: Q04DX003 (ip), vehicle: saline with Tween-80 102 % of control | endpoint: mean survival time, dose: 50.0 mg/kg/injection, schedule: Q04DX003 (ip), vehicle: saline with Tween-80 102 % of control | [2] 104 % of control | [4] 102 % of control | [6] 104 % of control

CCOC(=O)/C=C\C1=CCCC1
inactive: endpoint: mean survival time, dose: 50.0 mg/kg/injection, schedule: Q01DX009 (ip), vehicle: saline 102 % of control | endpoint: mean survival time, dose: 100.0 mg/kg/injection, schedule: Q01DX009 (ip), vehicle: saline 98 % of control | endpoint: mean survival time, dose: 200.0 mg/kg/injection, schedule: Q01DX009 (ip), vehicle: saline 102 % of control

C1CCC2[N-]CCCC2C1.C1CCC2[N-]CCCC2C1.[Cl][Pt+2][Cl] (centres undefined)
inactive: endpoint: median survival time, dose: 3.12 mg/kg/injection, schedule: Q04DX003 (ip), vehicle: saline 102 % of control | endpoint: median survival time, dose: 6.25 mg/kg/injection, schedule: Q04DX003 (ip), vehicle: saline 98 % of control | endpoint: median survival time, dose: 12.5 mg/kg/injection, schedule: Q04DX003 (ip), vehicle: saline 101 % of control | endpoint: median survival time, dose: 25.0 mg/kg/injection, schedule: Q04DX003 (ip), vehicle: saline 105 % of control | endpoint: median survival time, dose: 50.0 mg/kg/injection, schedule: Q04DX003 (ip), vehicle: saline 103 % of control | endpoint: median survival time, dose: 100.0 mg/kg/injection, schedule: Q04DX003 (ip), vehicle: saline 94 % of control | endpoint: median survival time, dose: 200.0 mg/kg/injection, schedule: Q04DX003 (ip), vehicle: saline 100 % of control

OCCCl
inactive: endpoint: mean survival time, dose: 75.0 mg/kg/injection, schedule: Q01DX001 (ip), vehicle: saline 104 % of control | endpoint: mean survival time, dose: 150.0 mg/kg/injection, schedule: Q01DX001 (ip), vehicle: saline 103 % of control

OCC1OC([Se])C(O)C(O)C1O.[CH3][Sb][CH3] (centres undefined)
inactive: endpoint: mean survival time, dose: 50.0 mg/kg/injection, schedule: Q01DX009 (ip), vehicle: Klucel (hydroxypropylcellulose) (HPC) 88 % of control

CCCCCCOC(CN(C)C)C(Cl)(Cl)Cl (centres undefined)
inactive: endpoint: mean survival time, dose: 12.5 mg/kg/injection, schedule: Q01DX009 (ip), vehicle: saline with Tween-80 96 % of control and 103 % of control | endpoint: mean survival time, dose: 25.0 mg/kg/injection, schedule: Q01DX009 (ip), vehicle: saline with Tween-80 96 % of control and 100 % of control | [12] 97 % of control and 100 % of control | [1] 96 % of control and 101 % of control | [3] 102 % of control and 105 % of control | [5] 105 % of control

COCNC(=S)N/N=C/c1ccc(O)cn1
inactive: [7] 95 % of control | [8] 98 % of control | [9] 102 % of control

CCCCCCCCCCC(CCCCCCCCCC)=NN=C(CCCCCCCCCC)CCCCCCCCCC
inactive: endpoint: mean survival time, dose: 100.0 mg/kg/injection, schedule: Q01DX001 (ip), vehicle: Klucel (hydroxypropylcellulose) (HPC) 90 % of control | endpoint: mean survival time, dose: 200.0 mg/kg/injection, schedule: Q01DX001 (ip), vehicle: Klucel (hydroxypropylcellulose) (HPC) 86 % of control | endpoint: mean survival time, dose: 400.0 mg/kg/injection, schedule: Q01DX001 (ip), vehicle: Klucel (hydroxypropylcellulose) (HPC) 90 % of control

OB(O)Oc1ccc(Br)cc1
inactive: endpoint: mean survival time, dose: 50.0 mg/kg/injection, schedule: Q01DX009 (ip), vehicle: other 95 % of control | endpoint: mean survival time, dose: 100.0 mg/kg/injection, schedule: Q01DX009 (ip), vehicle: other 91 % of control | endpoint: mean survival time, dose: 200.0 mg/kg/injection, schedule: Q01DX009 (ip), vehicle: other 102 % of control

Nc1ccc(S(=O)(=O)Nc2cnc3c(Cl)cccc3n2)cc1
inactive: endpoint: median survival time, dose: 100.0 mg/kg/injection, schedule: Q01DX005 (ip), vehicle: DMSO 98 % of control | endpoint: median survival time, dose: 200.0 mg/kg/injection, schedule: Q01DX005 (ip), vehicle: DMSO 98 % of control | endpoint: median survival time, dose: 400.0 mg/kg/injection, schedule: Q01DX005 (ip), vehicle: DMSO 98 % of control | endpoint: median survival time, dose: 800.0 mg/kg/injection, schedule: Q01DX005 (ip), vehicle: DMSO 105 % of control
